Patent US8399439B2, “2-methylene-19,26-dinor-(20S,22E,25R)-vitamin D analogs” (Wisconsin Alumni Research Foundation, priority 2008, dated 2013)

Columns and labels:
HL-60 cells = assay: HL-60 cell differentiation (nitro blue tetrazolium reduction); format: cell-based, human; settings: for EC50: HL-60 cells, 4 days, FIG. 2
Protocol: The study drugs were dissolved in ethanol and the concentrations determined using UV spectrophotometry. Serial dilutions were prepared so that a range of drug concentrations could be tested without changing the final concentration of ethanol (≦0.2%) present in the cell cultures.
Human promyelocytic leukemia (HL60) cells were grown in RPMI-1640 medium containing 10% fetal bovine serum. The cells were incubated at 37° C. in the presence of 5% CO2.
HL60 cells were plated at 1.2×10^5 cells/ml. Eighteen hours after plating, cells in duplicate were treated with drug. Four days later, the cells were harvested and a nitro blue tetrazolium reduction assay was performed (Collins et al., 1979; J. Exp. Med. 149:969-974). The percentage of differentiated cells was determined by counting a total of 200 cells and recording the number that contained intracellular black-blue formazan deposits. Verification of differentiation to monocytic cells was determined by measuring phagocytic activity (data not shown).

[1] = test system: 24-hydroxylase (24Ohase) gene promoter; assay: In vitro transcription assay, luciferase reporter in ROS 17/2.8 (bone) cells; format: cell-based; settings: for EC50: ROS 17/2.8 cells, 24-hydroxylase promoter-luciferase, 16 h, FIG. 3, read-out: EC50, transcriptional activity in bone cells
Protocol: Transcription activity was measured in ROS 17/2.8 (bone) cells that were stably transfected with a 24-hydroxylase (24Ohase) gene promoter upstream of a luciferase reporter gene (Arbour et al., 1998). Cells were given a range of doses. Sixteen hours after dosing the cells were harvested and luciferase activities were measured using a luminometer.
RLU=relative luciferase units.

vitamin D-deficient rats [2] = assay: Bone calcium mobilization (serum calcium); format: in vivo, rat; settings: rats on low calcium diet (0.02%), FIG. 4
Protocol: (§1) Male, weanling Sprague-Dawley rats were placed on Diet 11 (0.47% Ca) diet+AEK oil for one week followed by Diet 11 (0.02% Ca)+AEK oil for 3 weeks. The rats were then switched to a diet containing 0.47% Ca for one week followed by two weeks on a diet containing 0.02% Ca. Dose administration began during the last week on 0.02% calcium diet. Four consecutive ip doses were given approximately 24 hours apart. Twenty-four hours after the last dose, blood was collected from the severed neck and the concentration of serum calcium determined as a measure of bone calcium mobilization. The first 10 cm of the intestine was also collected for intestinal calcium transport analysis using the everted gut sac method.
Calcium mobilization from bone and intestinal calcium absorption in vitamin D-deficient animals. Using vitamin D-deficient rats on a low calcium diet (0.02%), the activities of SOR-1 and 1,25(OH)2D3 in intestine and bone were tested.

[3] = target: T1, full-length recombinant rat vitamin D receptor (Rattus norvegicus, UniProt P13053); assay: Vitamin D receptor competitive binding with [3H]-1,25(OH)2D3; settings: full-length recombinant rat VDR; FIG. 1; read-out: Ki, competition with [3H]-1,25(OH)2D3 for binding to vitamin D receptor
T1 construct: Full-length recombinant rat receptor was expressed in E. coli; His tag (C); made in house; host or cells: E. coli BL21 (DE3) Codon Plus RIL
T1 sequence (P13053 1-423): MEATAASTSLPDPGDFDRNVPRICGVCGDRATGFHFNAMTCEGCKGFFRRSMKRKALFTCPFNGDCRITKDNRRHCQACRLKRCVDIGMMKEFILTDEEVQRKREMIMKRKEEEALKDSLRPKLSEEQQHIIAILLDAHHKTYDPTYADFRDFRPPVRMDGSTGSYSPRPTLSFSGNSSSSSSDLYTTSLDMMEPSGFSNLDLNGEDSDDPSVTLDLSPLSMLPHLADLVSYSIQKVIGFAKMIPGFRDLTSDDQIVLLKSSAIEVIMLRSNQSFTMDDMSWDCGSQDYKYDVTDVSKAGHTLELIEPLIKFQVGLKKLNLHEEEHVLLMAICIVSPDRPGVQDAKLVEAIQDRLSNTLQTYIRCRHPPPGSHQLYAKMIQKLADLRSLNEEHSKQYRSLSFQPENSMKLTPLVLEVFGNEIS
Protocol: Full-length recombinant rat receptor was expressed in E. coli BL21 (DE3) Codon Plus RIL cells and purified to homogeneity using two different column chromatography systems. The first system was a nickel affinity resin that utilizes the C-terminal histidine tag on this protein. The protein that was eluted from this resin was further purified using ion exchange chromatography (S-Sepharose Fast Flow). Aliquots of the purified protein were quick frozen in liquid nitrogen and stored at −80° C. until use. For use in binding assays, the protein was diluted in TEDK50 (50 mM Tris, 1.5 mM EDTA, pH7.4, 5 mM DTT, 150 mM KCl) with 0.1% Chaps detergent. The receptor protein and ligand concentration were optimized such that no more than 20% of the added radiolabeled ligand was bound to the receptor.
Radiolabeled and unlabeled ligands were added to 100 mcl of the diluted protein at a final ethanol concentration of ≦10%, mixed and incubated overnight on ice to reach binding equilibrium. The following day, 100 mcl of hydroxylapatite slurry (50%) was added to each tube and mixed at 10-minute intervals for 30 minutes. The hydroxylapaptite was collected by centrifugation and then washed three times with Tris-EDTA buffer (50 mM Tris, 1.5 mM EDTA, pH 7.4) containing 0.5% Titron X-100. […] Total binding was determined from the tubes containing only radiolabeled ligand.

vitamin D-deficient rats [4] = assay: Intestinal calcium transport (everted gut sac method); format: in vivo, rat; settings: FIG. 5
Protocol: as §1
Intestinal calcium transport was evaluated in the same group of animals using the everted gut sac method (FIG. 5).

[5] = 780 pmol/day ip for 4 consecutive days
[6] = fold more active than 1α,25-dihydroxyvitamin D3
[7] = 2,340 pmol/day ip for 4 consecutive days

Row | Compound | EC50 (HL-60 cells) [pM] | EC50 [1] [pM] | bone calcium mobilization (vitamin D-deficient rats [2]; [5]) | serum calcium levels (vitamin D-deficient rats [2]; all dosages) | Ki [3] [pM] | EC50 (HL-60 cells; Homo sapiens, 96 h) [pM] | HL-60 cell differentiation activity relative to 1α,25-dihydroxyvitamin D3 (HL-60 cells; [6]) | transcriptional activity in bone cells relative to 1α,25-dihydroxyvitamin D3 [1, 6] | bone calcium mobilization (vitamin D-deficient rats [2]; [7]) | intestinal calcium transport activity (vitamin D-deficient rats [4]; [5]) | intestinal calcium transport activity (vitamin D-deficient rats [4]; [7])
1 | C=C1/C(=C\C=C2/CCC[C@]3(C)[C@@H]([C@H](C)CCCC(C)(C)O)CC[C@@H]23)C[C@@H](O)C[C@@H]1O [1α,25-dihydroxyvitamin D3, reference compound] | 2000 | 200 | significant activity | increased serum calcium levels at all dosages | – | – | – | – | – | – | –
2 | C=C1[C@H](O)CC(=C/C=C2\CCC[C@]3(C)[C@@H]([C@@H](C)/C=C/C[C@@H](C)O)CC[C@@H]23)C[C@H]1O [SOR-1, 2-methylene-19,26-dinor-(20S,22E,25R)-1α,25-dihydroxyvitamin D3] | – | 80 | – | – | 100 | 900 | about 3 times | about 3 times | did not result in any mobilization of bone calcium | almost no activity as compared to 1,25(OH)2D3 | activity similar to 1,25(OH)2D3
